Laboratory results reported in ChEMBL document CHEMBL4613258, “Distribution of Bibenzyls, Prenyl Bibenzyls, Bis-bibenzyls, and Terpenoids in the Liverwort Genus Radula” (J Nat Prod, 2020).
Converted amounts (≈) assume the structure as drawn. One block for each compound: values may come before it.

Legend:
[1] = system: RAW264.7; assay: Inhibition of LPS-induced NO-production in mouse RAW264.7 cells at 4.5 to 20 uM incubated for 24 hrs by Griess reagent based assay relative to control; format: functional
[2] = Inhibition of calmodulin (unknown origin); settings: Homo sapiens
[3] = Antioxidant activity assessed as DPPH radical scavenging activity at 50 ug/ml relative to control; format: functional
[4] = Inhibition of DNA polymerase beta (unknown origin); set-up: species or system Homo sapiens
[5] = system: KB; assay: Cytotoxicity against human KB cells; format: functional; settings: read-out: ED50 (the source's name)
[6] = system: Staphylococcus aureus; assay: […] activity against Staphylococcus aureus; format: functional
[7] = system: Macrophage; assay: Inhibition of superoxide anion radical release in guinea pig macrophages; format: functional, cell-based; settings: Cavia porcellus
[8] = molecular target: Cyclooxygenase (Homo sapiens, UniProt P35354+P23219); assay: Inhibition of COX (unknown origin); format: protein assay
[9] = system: MRC5; assay: Cytotoxicity against human MRC5 cells; format: functional, cell-based
[10] = system: Trichostrongylus colubriformis; assay: Antiparasitic activity against Trichostrongylus colubriformis assessed as inhibiton of parasite growth at 0.7 ug/ml relative to control; format: functional
[11] = molecular target: Vasopressin V1a receptor (Homo sapiens) (UniProt P37288); assay: Antagonist activity at vasopressin (unknown origin)
[12] = system: NCI-H1299; assay: Cytotoxicity against human NCI-H1299 cells; format: functional, cell-based
[13] = system: Candida albicans; assay: Antifungal activity against Candida albicans; format: functional
[14] = system: Trichophyton mentagrophytes; assay: Antifungal activity against Trichophyton mentagrophytes; format: functional
[15] = system: Trichostrongylus colubriformis; assay: Antiparasitic activity against Trichostrongylus colubriformis; format: functional, organism-based

Vasopressin V1a receptor (Homo sapiens), sequence (P37288 whole entry, looked up): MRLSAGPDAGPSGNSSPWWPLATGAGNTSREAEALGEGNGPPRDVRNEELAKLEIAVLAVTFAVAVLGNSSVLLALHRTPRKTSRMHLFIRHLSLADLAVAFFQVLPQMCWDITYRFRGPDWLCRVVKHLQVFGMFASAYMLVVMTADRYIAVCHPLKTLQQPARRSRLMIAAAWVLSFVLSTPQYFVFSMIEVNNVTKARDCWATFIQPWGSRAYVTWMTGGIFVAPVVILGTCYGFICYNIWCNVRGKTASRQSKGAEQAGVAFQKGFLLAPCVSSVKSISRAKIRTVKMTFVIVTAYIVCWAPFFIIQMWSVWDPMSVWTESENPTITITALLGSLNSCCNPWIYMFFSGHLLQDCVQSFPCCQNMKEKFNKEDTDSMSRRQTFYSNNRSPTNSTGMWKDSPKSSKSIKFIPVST

Compound: CC1=CCc2c(O)cc(CCc3ccccc3O)cc2OC1
inhibition (INH) [1]: 50%

Compound: Oc1cccc(CCc2ccc(Oc3cc(CCc4cccc(O)c4)cc(O)c3O)cc2)c1 [PERROTETTIN F]
IC50 [4]: 97.5 to 114 µM
EC50 [5]: 20 µg/mL (≈ 45.2 µM)

Compound: CC1=CCc2c(cc(CCc3ccc(O)cc3)c(C(=O)O)c2O)OC1
ID50 [2]: 18.5 µg/mL (≈ 54.4 µM)

Compound: C[C@]12COc3cc(CCc4ccccc4)c(C(=O)O)c(O)c3[C@H]1C2
IC50 [7]: 6 µg/mL (≈ 18.5 µM)
inhibition (INH) [1]: 50%
IC50 [8]: 39.7 µM

Compound: Oc1cccc(CCc2ccc(Oc3cc(CCc4cccc(O)c4)ccc3O)cc2)c1
IC50 [9]: 7.46 µg/mL (≈ 17.5 µM)
EC50 [5]: 12.5 µg/mL (≈ 29.3 µM)

Compound: COc1ccc(CCc2cccc(OC)c2)cc1
inhibition at 0.7 µg/mL [10]: 30%

Compound: COC(=O)c1c(CCc2ccccc2)cc(O)c(CC=C(C)C)c1O
IC50 [12]: 5.1 µM

Compound: COc1cccc(CCc2ccc(O)cc2)c1
MIC [13]: 125 µg/mL (≈ 548 µM)
MIC [14]: 62.5 µg/mL (≈ 274 µM)
IC50 [15]: 0.13 µg/mL (≈ 0.569 µM)

Continued, in another order:

ID50 [2]: 4.9 µg/mL (≈ 17.4 µM)
Compound: CC(C)=CCc1c(O)cc(O)cc1CCc1ccccc1
Activity [3]: 28%

ID50 [2]: 2 µg/mL (≈ 6.75 µM)
Compound: C=C(C)[C@H]1Cc2c(CCc3ccccc3)cc(O)c(O)c2O1

ID50 [2]: 4 µg/mL (≈ 11.4 µM)
MIC [6]: 20 µg/mL (≈ 57.1 µM)
Compound: CC(C)=CCC/C(C)=C/Cc1c(O)cc(O)cc1CCc1ccccc1
inhibition (INH) [1]: 50%

ID50 [2]: 3.5 µg/mL (≈ 11.7 µM)
Compound: CC(C)=CCc1c(CCc2ccccc2)cc(O)c(O)c1O

ID50 [2]: 95 µg/mL (≈ 339 µM)
Compound: CC1=CCc2c(O)cc(CCc3ccccc3)cc2OC1
inhibition (INH) [1]: 50%

ID50 [11]: 27 µg/mL (≈ 91.1 µM)
MIC [6]: 3 µg/mL (≈ 10.1 µM)
Compound: COc1cc(CCc2ccccc2)cc(O)c1CC=C(C)C
